The text below walks through data of patent publication US10335373B2, “Tamper resistant and dose-dumping resistant pharmaceutical dosage form” (GRÜNENTHAL GMBH, priority 2012, dated 2019).

The structures appear in SMILES notation. Where a name gives a salt, the structure may show the parent alone.

In the case of `C=CCN1CC[C@]23c4c5ccc(O)c4O[C@H]2C(=O)CC[C@@]3(O)[C@H]1C5` [naloxone hydrochloride], the “solubility in aqueous ethanol” value is reported as “soluble”.
